The values that follow come from patent EP0960886B1, “Peptide T and related peptides in the treatment of inflammation, including multiple sclerosis” (priority 1992, dated 1993).

The subject of assay [1] is mouse foetal hippocampal neurons. As to conditions: cultures of mouse foetal hippocampal neurons; cited from earlier work.
The conditions of assay [2]: spinal administration to rats; tail-flick latency and tail-shock induced vocalisation; cited from earlier work.
The next assay relates to LPS. Briefly: LPS toxicity and survival in mice bearing Meth A ascites tumours (Example 7). As to conditions: 100 µg LPS subcutaneously with 1mg analogue. The format is in vivo. As for the experimental part:
Mice bearing Meth A ascites tumours were given 100 µg LPS subcutaneously with either bovine serum albumin (BSA) or peptide T analogue (504 or 505, 1mg). The number of animals showing signs of LPS toxicity (diarrhoea, exudate from the eyes and general level of activity) in each group was recorded at 19, 24 and 41 hours after injection. At the completion of the experiment the number of surviving animals was recorded (see Table II below) and the survivors bled for later determination of TNF, IL-1, IL-6 and RNI levels.

Assay [3] relates to human neutrophils. Briefly: TNF-induced neutrophil chemiluminescence (lucigenin-dependent). In kind it is cell-based. Conditions: 500-1000U/ml TNF. On the procedure:
(§1) Neutrophils. Neutrophils were isolated from whole blood from healthy blood donors. Separation was achieved by the rapid-single-step method of centrifugation of whole blood on FICOLL-HYPAQUE™. These were >99% viable and usually >98% pure.
(§2) Peptides and TNF. TNF was a recombinant product produced in E. coli. Peptide T and analogue 505 (D-Ser-Ser-D-Thr-Thr-D-Thr-Thr-Tyr-D-Thr) were resuspended in Hank's Balanced Salt Solution (HBSS).
(§3) To 100µl of 500-1000U/ml of TNF was added 10µl of peptide and after 5 min 100µl of 1x10^7 neutrophils/ml was added. The cells further incubated at 37°C/20 min and then tested for chemiluminescence activity. In some cases an agonist such as fMLP (10^-7M) was added. Chemiluminescence was measured in a luminometer (LKB). The results for Peptide T are presented in Figure 12 as peak rate of CL release. Lucigenin-dependent chemiluminescence was measured: this represents superoxide measurement. In another set of experiments the effects of analogue 505 on the LPS-induced neutrophil chemiluminescence were examined. In this case the LPS was essentially substituted for the TNF. The concentration of LPS was 0.005µg/ml.

In assay [4] the test system is human neutrophils. Briefly: LPS-induced neutrophil chemiluminescence. The format is cell-based. As to conditions: LPS 0.005µg/ml. On the procedure: as §1, §2, §3

Square brackets hold non-standard residues; d marks the D form. Ends that are not written are not given here. Peptide text beside a SMILES is read from it.

With “human vasoactive intestinal peptide (HSDAVFTDNYTRLRKQMAVKKYLNSILN; ends and bridges not checked; UniProt P01282 125-152, looked up) [VIP, reference compound]”, in assay [1], the gp120-induced neurotoxicity result was “completely eliminated”. The analgesia result in assay [2] is “produced analgesia”.
`C[C@H](O)[C@@H](NC(=O)[C@H](Cc1ccc(O)cc1)NC(=O)[C@@H](NC(=O)[C@H](NC(=O)[C@@H](NC(=O)[C@H](NC(=O)[C@H](CO)NC(=O)[C@H](N)CO)[C@H](C)O)[C@@H](C)O)[C@H](C)O)[C@@H](C)O)C(N)=O` [analogue 505, D-Ser-Ser-D-Thr-Thr-D-Thr-Thr-Tyr-D-Thr] (H-[dS]S[dT]T[dT]TY[dT]-NH2): in the assay on LPS, the “% mice surviving 41 hours” value is on record as 100%, the “% mice with diarrhoea at 19 hrs” value was found to be 40% and the “% mice with exudate at 19 hrs” value amounted to 20%. Besides, the “TNF priming and activation of human neutrophils” value in the assay with human neutrophils [3] was “inhibits TNF priming and activation”. Also, the “LPS activation of human neutrophils” value in the assay with human neutrophils [4] is “inhibits LPS activation”.
In the case of `C[C@H](O)[C@@H](NC(=O)[C@H](Cc1ccc(O)cc1)NC(=O)[C@H](CC(N)=O)NC(=O)[C@H](NC(=O)[C@@H](NC(=O)[C@H](NC(=O)[C@H](CO)NC(=O)[C@@H](C)N)[C@H](C)O)[C@@H](C)O)[C@H](C)O)C(N)=O` [analogue 504], in the assay on LPS, the “% mice surviving 41 hours” value stood at 100%, the “% mice with diarrhoea at 19 hrs” value was 40% and the “% mice with exudate at 19 hrs” value came out at 60%.
